In patent US12371416B2, “Compounds for inhibition of fibroblast activation protein” (USTAV ORGANICKE CHEMIE A BIOCHEMIE AV CR, V. V. I., priority 2020, dated 2025):

Columns and labels:
Type in all cases: cell-based, human
Conditions in all cases: 72 h
[1] = tested on: CCRF-CEM; test: Cytotoxicity (XTT) on CCRF-CEM cells
Protocol: (§1) The cytotoxicity of the substances was measured on four tumour cell lines: CCRF-CEM, HepG2, Hela, HL-60. All cell lines were purchased from ATCC (Manassas, VA, USA). Cells were cultured in RPMI-1640 or DMEM medium containing 10% (wt/wt) FBS and 1% (wt/wt) GlutaMax. Cells were distributed at 2,000-10,000 per well of a 384-well plate (Thermo Fisher Scientific, Waltham, USA) and incubated overnight. After 24 hours, test substance solutions (10 or 100 μmol·l^−1) were added to the wells and the cells were incubated with the test substances at 37° C. and 5% (vol./vol.) CO2 for another 72 h. XTT dye (XTT cell proliferation kit II, Roche Diagnostics GmbH, Mannheim, Germany) was added to the wells according to the manufacturer's protocol. After one hour of incubation with the dye, the absorbance at 495 nm was measured and the signal was compared with the control (100% viability=cells without test substance).

[2] = tested on: HL-60; test: Cytotoxicity (XTT) on HL-60 cells
Protocol: as §1

[3] = tested on: Hela; test: Cytotoxicity (XTT) on Hela cells
Protocol: as §1

[4] = tested on: HepG2; test: Cytotoxicity (XTT) on HepG2 cells
Protocol: as §1

Row | SMILES | Cell viability CEM 10 μM [1] [% vs. control] | Cell viability CEM 100 μM [1] [% vs. control] | Cell viability HL60 10 μM [2] [% vs. control] | Cell viability HL60 100 μM [2] [% vs. control] | Cell viability HeLa S3 10 μM [3] [% vs. control] | Cell viability HeLa S3 100 μM [3] [% vs. control] | Cell viability HepG2 10 μM [4] [% vs. control] | Cell viability HepG2 100 μM [4] [% vs. control]
1 | COC(=O)C(C)NC(=O)C(=O)[C@@H]1CCCN1C(=O)CNC(=O)c1ccnc2ccccc12 (mixture of isomers) [Compound 3m, Methyl (2-oxo-2-((S)-1-((quinoline-4-carbonyl)glycyl)pyrrolidin-2-yl)acetyl)alaninate] | 97 | 120 | 102 | 124 | 108 | 104 | 91 | 105
2 | O=C(NCCc1ccccc1)C(=O)[C@@H]1CCCN1C(=O)CNC(=O)c1ccnc2ccccc12 [Compound 3d, (S)—N-(2-Oxo-2-(2-(2-oxo-2-(phenethylamino)acetyl)pyrrolidin-1-yl)ethyl)quinoline-4-carboxamide] | 105 | 85 | 110 | 107 | 86 | 81 | 88 | 89
3 | COc1ccc(NC(=O)C(=O)[C@@H]2CCCN2C(=O)CNC(=O)c2ccnc3ccccc23)cc1 [Compound 3f, (S)—N-(2-(2-(2-((4-Methoxyphenyl)amino)-2-oxoacetyl)pyrrolidin-1-yl)-2-oxoethyl)quinoline-4-carboxamide] | 92 | 84 | 110 | 108 | 103 | 94 | 95 | 82
4 | COC(=O)c1ccc(NC(=O)C(=O)[C@@H]2CCCN2C(=O)CNC(=O)c2ccnc3ccccc23)cc1 [Compound 3g, Methyl (S)-4-(2-oxo-2-(1-((quinoline-4-carbonyl)glycyl)pyrrolidin-2-yl)acetamido)benzoate] | 106 | 73 | 100 | 103 | 98 | 89 | 93 | 63
5 | O=C(NC1CC1)C(=O)[C@@H]1CCCN1C(=O)CNC(=O)c1ccnc2ccccc12 [Compound 3h, (S)—N-(2-(2-(2-(Cyclopropylamino)-2-oxoacetyl)pyrrolidin-1-yl)-2-oxoethyl)quinoline-4-carboxamide] | 94 | 115 | 110 | 95 | 89 | 103 | 88 | 108
6 | CC(C)NC(=O)C(=O)[C@@H]1CCCN1C(=O)CNC(=O)c1ccnc2ccccc12 [Compound 3i, (S)—N-(2-(2-(2-(Isopropylamino)-2-oxoacetyl)pyrrolidin-1-yl)-2-oxoethyl)quinoline-4-carboxamide] | 93 | 117 | 111 | 100 | 78 | 105 | 87 | 110
